From US6825217B2, “Carbinols for the treatment of neuropathic dysfunction” (Endo Pharmaceuticals, Inc., priority 2001, dated 2004)

How the values were obtained:
[1] = Chung model (tactile allodynia); type: in vivo, rat
Protocol: This model for neuropathic pain was performed on rats using the surgical procedure described by Kim and Chung (1992) to induce an allodynic state. Briefly, the left L-5 and L-6 spinal nerves were isolated adjacent to the vertebral column and ligated with 6-0 silk suture distal to the dorsal root ganglion under isoflurane anesthesia. This model allows for spinal cord structural reorganization and growth of low threshold mechnoreceptor fibers from the spinal cord with synaptic connections and rewiring of the dorsal horn. This leads to spontaneous firing of invading sympathetic nerves and upregulation of receptors and voltage-dependent channels; i.e. mimics the development of allodynia (nociceptive response to a previously neutral stimulus). The rats were allowed a minimum of 7-days postoperative recovery period before testing.
To assess tactile thresholds in the Chung model, rats were placed in a clear plastic, wire mesh-bottomed cage, divided into individual compartments. Animals were allowed to acclimate and then baseline thresholds were assessed prior to drug treatment. To assess the 50% mechanical threshold for paw withdrawal, von Frey hairs were applied to the plantar mid-hindpaw, avoiding the tori (footpads). The eight von Frey hairs used are designated by [log (10*force required to bend hair, mg)] and range from 0.4-15.1 grams (#'s 3.61-5.18). Each hair was pressed perpendicularly against the paw with sufficient force to cause slight bending, and held for approximately 6-8 seconds. A positive response was noted if the paw was sharply withdrawn. Flinching immediately upon removal of the hair was also considered a positive response. Absence of a response (“−”) was cause to present the next consecutive stronger stimulus; a positive response (“+”) was cause to present the next weaker stimulus. Stimuli were presented successively until either six data points were collected, or the maximum or minimum stimulus was reached. If a minimum stimulus was reached and positive responses still occurred, the threshold was assigned an arbitrary minimum value of 0.25 grams; if a maximum stimulus was presented and no response occurred, a maximum threshold value of 15 grams was assigned. If a change in response occurs, either “−” to “+” or “+” to “−”, causing a change in the direction of stimulus presentation from descending to ascending or vice-versa, four additional data points were collected subsequent to the change.

[2] = Mouse antiphenylquinone writhing (PQW) test; type: in vivo
Protocol: The anti-phenylquinone writhing (PQW) test modified from the methods of Siegmund et al. (Proc. Soc. Exp. Biol. Med. 95: 729-731, 1957) and Blumberg et al. (Proc. Exp. Biol. Med. 118: 763-767, 1965) was used to assess the relief from the simulated symptoms of neuropathic pain in mice. Male CF1 mice (Charles River Breeding Laboratories, Wilmington, Mass.), fasted for 16-22 hours and weighing 18-23 g, were injected with randomized and coded doses of test compounds, then challenged with 1.25 mg/kg i.p. phenyl-p-benzoquinone (phenylquinone) 5 minutes prior to the specified observation time. The phenylquinone solution (0.1 mg/ml in 5% aqueous ethanol) was prepared daily and stored in foil-wrapped amber bottles to limit degradation. Mice were observed 10 minutes for the presence or absence of the characteristic abdominal constriction and stretching response beginning 30 minutes after injection of the test compound. Activity was calculated as the percentage of mice failing to respond to the phenylquinone challenge dose. […] Median effective doses (ED50's) and 95% confidence limits were determined numerically by the methods of Thompson (Bacteriological Rev. 11: 115-145, 1947), and Litchfield and Wilcoxon (J. Pharmacol. Exp. Ther. 96: 99-113, 1949).

[3] = Rat Randall-Selitto; type: in vivo; set-up: key to activity in rat Randell-Selitto model: *: Inactive; Φ: Weakly active
[4] = Five-day Oral Dose Escalation in Beagle Dogs; type: in vivo, Beagle dog
[5] = Safety pharmacology, dog; type: in vivo

CN1CCC(c2ccsc2)(C(C)(C)O)CC1 [Compound A, 4-(3-thienyl)-α,α,1-trimethyl-4-piperidinemethanol]
effect upon arousal or motor function ([1]; at doses effective in formalin and Chung models): no effect upon arousal or motor function
effect upon tactile allodynia arising from nerve injury ([1]; rat): reliable dose dependent effect
effects on tactile allodynia ([1]; rat, two hours post injection, doses 200 mg/kg and 100 mg/kg): statistically significant effects
ED50 ([2]; Mus musculus): 18 mg/kg
activity in mouse PQW model ([2]; mouse, unmarked entry of animal model table): showed activity
ED50 ([3]; Rattus norvegicus): 32 mg/kg
activity in rat Randell-Selitto model ([3]; rat): Randell-Selitto^Φ
NOEL (mydriasis) [4]: NOEL < 2.5 mg/kg
MTD at 5 day ([4]; dog, in vivo, read-out: MTD (decreased BW)): < 20 mg/kg
MTD ([5]; in vivo): 20 mg/kg
hypotension/decreased cardiac contractility, anemia, multiple of effective dose ([5]; iv-pentobarb): 10 X
emesis/anorexia BW loss, multiple of effective dose ([5]; po): 1-10 X
respiratory acidosis, multiple of effective dose ([5]; po): 10 X
